Experimental data published in patent US6528528B2 (Warner-Lambert Company, priority 1997, dated 2003).

The compounds below were run against T1, rabbit reticulocyte 15-LO (Oryctolagus cuniculus, UniProt P12530) (assay: Rabbit Reticulocyte 15-LO Assay (h15LO)). Conditions: Table 2; 2U rabbit reticulocyte 15-LO, 174 μM linoleic acid, 15 minutes at 4° C.
T1 construct: Fifteen-lipoxygenase was obtained from phenylhydrazine-treated rabbits and purified per the method of Rapoport; from tissue; host or cells: reticulocytes of phenylhydrazine-treated rabbits
T1 sequence (P12530 1-663): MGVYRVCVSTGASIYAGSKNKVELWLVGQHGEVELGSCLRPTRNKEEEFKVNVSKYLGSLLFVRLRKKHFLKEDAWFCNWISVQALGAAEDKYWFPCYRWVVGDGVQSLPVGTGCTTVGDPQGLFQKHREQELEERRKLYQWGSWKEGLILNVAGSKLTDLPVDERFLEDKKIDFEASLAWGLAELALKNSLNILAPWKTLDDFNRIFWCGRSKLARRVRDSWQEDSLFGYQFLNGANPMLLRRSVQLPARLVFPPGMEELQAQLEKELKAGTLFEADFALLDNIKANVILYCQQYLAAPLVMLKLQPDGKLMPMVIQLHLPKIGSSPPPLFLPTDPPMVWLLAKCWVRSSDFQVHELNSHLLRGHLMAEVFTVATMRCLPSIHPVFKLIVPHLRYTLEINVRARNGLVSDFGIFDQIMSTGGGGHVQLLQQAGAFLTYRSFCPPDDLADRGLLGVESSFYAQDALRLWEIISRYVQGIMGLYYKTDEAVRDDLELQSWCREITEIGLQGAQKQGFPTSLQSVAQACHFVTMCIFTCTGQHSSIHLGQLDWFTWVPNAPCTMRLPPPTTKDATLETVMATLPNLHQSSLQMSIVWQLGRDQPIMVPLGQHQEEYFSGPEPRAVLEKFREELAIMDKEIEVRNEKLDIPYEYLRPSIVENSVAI
Assay type: biochemical
Experimental: Rabbit Reticulocyte 15-LO Assay (h15LO)
The present 15-LO assay takes advantage of the ability of 15-LO to oxidize the fatty acid linoleic acid to the hydroperoxy fatty acid 13-(S)HPODE, resulting in the formation of a conjugated diene. The 15-LO inhibitors are incubated with 15-LO enzyme in the presence of linoleic acid substrate. The initial reaction is compared to an uninhibited (maximal) reaction to yield % inhibition. […] This prevents artificial nonenzyme lipid peroxidation and product breakdown in the sample. 13-HPODE is quantitated by comparing peak areas of individual samples with those from a standard curve generated using authentic 13-HODE. This assay is performed using 2U of rabbit reticulocyte 15-LO in the presence of 174 μM linoleic acid. The reaction is incubated for 15 minutes at 4° C. The total reaction volume is 100 μL in PBS containing 0.2% Na cholate.
Fifteen-lipoxygenase was obtained from phenylhydrazine-treated rabbits and purified per the method of Rapoport (Rapoport S. M., Schewe T., Wiesner R., et al. The lipoxygenase of reticulocytes. Purification, characterization, and biological dynamics of the lipoxygenase; its identity with the respiratory inhibitors of the reticulocyte. European Journal of Biochemistry, 1979;96:545-561). The following chemicals were purchased and used as received: linoleic acid (NUJCheck Prep), 13-HPODE (Biomol Research Labs), sodium cholate (Sigma), trimethyl phosphite (Fluka Chemicals).

| IC50 | SMILES |
| --- | --- |
| 89 nM | COc1ccc(C(=O)Nc2ccccc2)cc1NCc1cccc(F)c1 [Example 214, 4-Methoxy-3-(3-fluoro-benzylamino)-N-phenyl-benzamide] |
| 161 nM | COc1ccc(C(=O)Nc2ccccc2)cc1NCc1cc(C)cc(C)c1 [Example 218, 4-Methoxy-3-(3,5-dimethyl-benzylamino)-N-phenyl-benzamide] |
| 54 nM | COc1ccc(C(=O)Nc2ccccc2)cc1Nc1ccc(F)cc1 [Example 153, 3-(4-Fluoro-phenylamino)-4-methoxy-N-phenyl-benzamide] |
| 69 nM | CCN(CC)c1ccc(CNc2cc(C(=O)Nc3ccccc3)ccc2OC)cc1 [Example 211, 3-(4-Diethylamino-benzylamino)-4-methoxy-N-phenyl-benzamide] |
| 732 nM | CCCCCCCCCCCCCCCCCCS(=O)(=O)Nc1cc(C(=O)Nc2ccccc2)ccc1OC [Example 184, 3-(Octadecane-1-sulfonylamino)-4-methoxy-N-phenyl-benzamide] |
| 137 nM | COc1ccc(C(=O)Nc2ccccc2)cc1NCc1cccs1 [Example 259, 4-Methoxy-3-[(thiophen-2-ylmethyl)-amino]-N-phenyl-benzamide] |
| 58 nM | COc1ccc(C(=O)Nc2ccccc2)cc1CNS(=O)(=O)c1cc(Cl)cc(Cl)c1 [Example 249, 3-[(3,5-Dichloro-benzenesulfonylamino)-methyl]-4-methoxy-N-phenyl-benzamide] |
| 4 nM | CCCCCCCCS(=O)(=O)Nc1cc(C(=O)Nc2ccccc2)ccc1OC [Example 178, 4-Methoxy-3-(octane-1-sulfonylamino)-N-phenyl-benzamide] |
| 551 nM | COC(=O)c1ccc(CNc2cc(C(=O)Nc3ccccc3)ccc2OC)cc1 [Example 221, 4-[(2-Methoxy-5-phenylcarbamoyl-phenylamino)-methyl]-benzoic Acid Methyl Ester] |

Second part, the compound before the results:

| SMILES | IC50 |
| --- | --- |
| COc1ccc(C(=O)OCc2ccccc2)cc1NC(=S)Nc1cc(Cl)cc(Cl)c1 [Example 176, 3-[3-(3,5-Dichloro-phenyl)-thioureido]-4-methoxy-benzoic Acid Benzyl Ester] | 800 nM |
| COc1ccc(NC(=O)c2ccc(Cl)c(Cl)c2)cc1NCc1cccs1 [Example 264, 3,4-Dichloro-N-{4-methoxy-3-[(thiophen-2-ylmethyl)-amino]-phenyl}-benzamide] | 37 nM |
| O=C(Nc1ccccc1)c1cccc(Nc2cc(Cl)cc(Cl)c2)c1 [Example 26, 3-(3,5-Dichloro-phenylamino)-N-phenyl-benzamide] | 1600 nM |
| COc1ccc(NC(=O)c2ccc(F)c(F)c2)cc1NC(=S)Nc1cccc(C(=O)O)c1 [Example 169, 3-{3-[5-(3,4-Difluoro-benzoylamino)-2-methoxy-phenyl]-thioureido}-benzoic Acid] | 246 nM |
| COc1ccc(NC(=O)c2ccc(F)c(F)c2)cc1N [Example 150, 3,4-Difluoro-N-(3-amino-4-methoxy-phenyl)-benzamide] | 205 nM |
| COc1ccc(NC(=O)c2ccc(Cl)c(Cl)c2)cc1Nc1cccc(C(F)(F)F)c1 [Example 160, 3,4-Dichloro-N-[4-methoxy-3-(3-trifluoromethyl-phenylamino)-phenyl]-benzamide] | 119 nM |
| COc1ccc(C(=O)Nc2ccc(F)c(F)c2)cc1NC(=S)Nc1cccc(C(=O)O)c1 [Example 162, 3-{3-[5-(3,4-Difluoro-phenylcarbamoyl)-2-methoxy-phenyl]-thioureido}-benzoic Acid] | 55 nM |

Same assay, conditions: Table 2; concentration not given

| h15LO, value given as bare % | SMILES |
| --- | --- |
| 97.24% | COc1ccc(C(=O)Nc2ccccc2)cc1NS(=O)(=O)c1ccc([N+](=O)[O-])cc1 [Example 188, 4-Methoxy-3-(4-nitro-benzenesulfonylamino)-N-phenyl-benzamide] |
| 73.46% | COc1ccc(C(=O)Nc2ccccc2)cc1NCc1ccc(C#N)cc1 [Example 233, 3-(4-Cyano-benzylamino)-4-methoxy-N-phenyl-benzamide] |
| 78.83% | CCOC(=O)c1cccc(NC(=O)c2ccc(OC)c(Nc3cccc(C(F)(F)F)c3)c2)c1 [Example 157, 3-[4-Methoxy-3-(3-trifluoromethyl-phenylamino)-benzoylamino]-benzoic Acid Ethyl Ester] |
| 99.35% | COc1ccc(C(=O)Nc2ccc(F)c(F)c2)cc1NS(=O)(=O)c1ccc([N+](=O)[O-])cc1 [Example 186, 4-Methoxy-3-(4-nitro-benzenesulfonylamino)-N-(3,4-difluoro-phenyl)-benzamide] |
| 56.33% | COc1ccc(C(=O)Nc2ccccc2)cc1NCc1cccc(C(=O)O)c1 [Example 241, 3-[(2-Methoxy-5-phenylcarbamoyl-phenylamino)-methyl]-benzoic Acid] |
| 98.51% | COc1ccc(C(=O)Nc2ccc(F)c(F)c2)cc1NC(=S)Nc1ccc(S(=O)(=O)[O-])cc1.[Na+] [Example 165, 4-{3-[5-(3,4-Difluoro-phenylcarbamoyl)-2-methoxy-phenyl]-thioureido}-benzenesulfonic Acid, Sodium Salt] |
| 92.01% | COc1ccc(NC(=O)c2ccc(F)c(F)c2)cc1NS(=O)(=O)c1cccc([N+](=O)[O-])c1 [Example 203, 3,4-Difluoro-N-[4-methoxy-3-(3-nitro-benzenesulfonylamino)-phenyl]-benzamide] |
| 53.51% | CCOC(=O)c1cccc(NC(=O)c2ccc(OC)c(NCc3cccs3)c2)c1 [Example 263, 3-{4-Methoxy-3-[(thiophen-2-ylmethyl)-amino]-benzoylamino}-benzoic Acid Ethyl Ester] |
| 98.38% | COc1ccc(C(=O)Nc2ccc(F)c(F)c2)cc1NS(=O)(=O)c1ccc(C#N)cc1 [Example 187, 3-(4-Cyano-benzenesulfonylamino)-4-methoxy-N-(3,4-difluoro-phenyl)-benzamide] |

More lines, now with the values behind:

| SMILES | h15LO, value given as bare % |
| --- | --- |
| Nc1cc(NC(=O)c2ccc(F)c(F)c2)ccc1F [Example 151, 3,4-Difluoro-N-(3-amino-4-fluoro-phenyl)-benzamide] | 82.66% |
| COc1ccc(C(=O)Nc2ccc(F)c(F)c2)cc1NCc1ccc(C(=O)O)cc1 [Example 234, 4-{[5-(3,4-Difluoro-phenylcarbamoyl)-2-methoxy-phenylalino]-methyl}-benzoic Acid] | 71.56% |
| COc1ccc(C(=O)Nc2ccc(F)cc2)cc1Nc1cc(Cl)cc(Cl)c1 [Example 154] | 97.66% |
| COc1ccc(NC(=O)Nc2ccc(Cl)c(Cl)c2)cc1N [Example 152, 1-(3-Amino-4-methoxy-phenyl)-3-(3,4-dichloro-phenyl)-urea] | 57.49% |
| COc1ccc(NC(=O)c2ccc(F)c(F)c2)cc1NCc1cccs1 [Example 265, 3,4-Difluoro-N-{4-methoxy-3-[(thiophen-2-ylmethyl)-amino]-phenyl}-benzamide] | 98.89% |
| COc1ccc(NC(=O)Nc2ccc(Cl)c(Cl)c2)cc1NC(=S)Nc1cc(C(F)(F)F)cc(C(F)(F)F)c1 [Example 174, 1-{3-[3-(3,5-Bis-trifluoromethyl-phenyl)-thioureido]-4-methoxy-phenyl}-3-(3,4-dichloro-phenyl)-urea] | 53% |
| O=C(Nc1ccccc1)c1ccc(OC(F)(F)F)c(Nc2cccc(C(F)(F)F)c2)c1 [Example 158, 4-Trifluoromethoxy-3-(3-trifluoromethyl-phenylamino)-N-phenyl-benzamide] | 48.28% |
